# Laboratory results reported in article PMC2116318 (The Journal of Cell Biology, 1990).
# How the values were obtained:
# [1] = tested on: sea urchin egg CaM kinase; assay: Autocamtide-2 phosphorylation by sea urchin egg extracts; type: biochemical, L. pictus (sea urchin)
# [2] = tested on: rat brain CaM kinase; assay: Autocamtide-2 phosphorylation by purified rat brain CaM kinase; type: biochemical
# [3] = tested on: L. pictus eggs (nuclear envelope breakdown); assay: Nuclear envelope breakdown; type: cell-based, L. pictus (sea urchin); settings: for Delay of NEB (fraction of eggs) / Duration of delay of NEB / Normal NEB (fraction of eggs): Table I, injected before fertilization
# [4] = tested on: 56-kD α-like egg polypeptide (sea urchin egg CaM kinase); assay: Endogenous phosphorylation in sea urchin egg calmodulin-depleted cytosol; type: biochemical, L. pictus (sea urchin); settings: 50 μM peptide in Fig. 5 A
# [5] = tested on: rat brain CaM kinase; assay: Autophosphorylation of rat brain CaM kinase; type: biochemical; settings: 50 μM peptide in Fig. 5 B
# [6] = higher concentrations, over 4% of the cell volume
substance,measurement,setting,value
"CaMK(284-302): control peptide, lacks a critical region of the autoinhibitory domain and therefore does not inhibit CaM kinase (QETVDCLKKFNARRKLKGA; UniProt P11275 284-302, looked up, fragment)",inhibition of egg kinase (in words),[1]; Discussion summary,very weak inhibitor
same,phosphorylation of autocamtide-2 (effect in words),"[1]; calmodulin-depleted cytosol fractions, Fig. 4",not affected
same,inhibitory effects on phosphorylation of autocamtide-2 (in words),"[1]; sea urchin egg extracts, concentrations up to 100 μM, Fig. 4",no apparent inhibitory effects
same,inhibition of brain kinase (in words),[2]; Discussion summary,very weak inhibitor
same,inhibition of rat brain kinase (in words),[2]; Fig. 4,does not inhibit rat brain kinase
same,effect on NEB (in words),[3]; Discussion summary,minimal effects on NEB
same,Delay of NEB (fraction of eggs),"[3]; 1.7-3.5% vol, 60-190 μM",1/9
same,Duration of delay of NEB,"[3]; 1.7-3.5% vol, 60-190 μM",9 min
same,Normal NEB (fraction of eggs),"[3]; 1.7-3.5% vol, 60-190 μM",8/9
same,Delay of NEB (fraction of eggs),"[3]; 4.1-4.8% vol, 220-260 μM",3/4
same,Duration of delay of NEB,"[3]; 4.1-4.8% vol, 220-260 μM",11 to 27 min
same,Normal NEB (fraction of eggs),"[3]; 4.1-4.8% vol, 220-260 μM",1/4
same,NEB (in words),"[3]; control peptide, text on Fig. 6",normal NEB
same,delay of NEB in one case,[3]; estimated intracellular concentration 80 μM,9 min
same,delay of NEB,"[3]; higher concentrations, injection volumes over 4% of the cell volume",11 to 27 min
same,cases in which NEB proceeded normally,[3]; [6],one case
same,cases with delayed NEB,[3]; [6],three of four
same,endogenous phosphorylation of the α-like subunit (effect in words),[4],only marginally affected
same,autophosphorylation of rat brain kinase (effect in words),[5],only slightly inhibited
